In this series the test system is leukotriene LTD4 aerosol challenge in guinea-pigs. Description: guinea-pig aerosol test (LTD4 aerosol challenge, onset of dyspnea). It is filed as in vivo. Particulars: for ED50: Cavia porcellus, oral administration, solution in poly(ethylene glycol), predosed generally 1 hour before LTD4 aerosol, read-out: ED50 (protection against LTD4-induced dyspnea). The procedure: According to this procedure, guinea-pigs are predosed with test compound as a solution in poly(ethylene glycol) (generally 1 hour) before an aerosol challenge of leukotriene LTD4 (starting with 2 ml of a 30 microgram/ml solution) and the effect of the test compound on the average time of leukotriene initiated change in breathing pattern (such as onset of dyspnea) recorded and compared with that in undosed-, control guinea-pigs. Percent protection engendered by a test compound was calculated from the time delay to the onset of dyspnea compared to that for control animals.

The ED50 is the dose that gives a 50% effect, or the effect in half of the subjects.

For `COc1cc(C(=O)NS(=O)(=O)c2ccccc2C)ccc1Cc1cn(C)c2ccc(C(=O)NC[C@H](C)CC(F)(F)F)cc12` [Example 2, (R)-3-Methoxy-4-[1-methyl-5-(2-methyl-4,4,4-trifluorobutylcarbamoyl)indol-3-ylmethyl]-N-(2-methylphenylsulfonyl)benzamide], the ED50 amounted to 1.1 µmol/kg. For the same molecule, under “oral, at several multiples of the minimum effective dose”, the untoward side-effects entry is “without any indication of untoward side-effects”. `COc1cc(C(=O)NS(=O)(=O)c2ccccc2C)ccc1Cc1cn(C)c2ccc(C(=O)NCC3CCCC3)cc12` [reference compound]: the ED50 was 19.2 µmol/kg.

These data come from patent US5286740A, “Carbamoyl derivatives” (Imperial Chemical Industries PLC, priority 1989, dated 1994).
